Assay results as given in patent US20210008206A1, “ADENOSINE PATHWAY INHIBITORS FOR CANCER TREATMENT” (Corvus Pharmaceuticals, Inc., priority 2017, published 2021).

What was measured:
tumor biopsies = experiment: On-treatment vs pre-treatment tumor biopsies, IHC and Nanostring gene expression; assay type: in vivo, human; settings: on-treatment biopsies compared to pre-treatment biopsies
Description: FIGS. 8A-8H show log2-fold changes in immunohistochemistry and gene expression (i.e., mRNA) by Nanostring on on-treatment biopsies compared to pre-treatment biopsies and identifies pharmacodynamics changes that are observed in CD73-high tumors treated with a compound of Formula (III). FIG. 8A compares CD8 infiltration, measured by IHC, in patients expressing low levels and high levels of CD73 (where the p=0.005) after treatment with the compound of Formula (III). FIG. 8B compares PD-L1 inflammation infiltration, measured by IHC, in patients expressing low levels and high levels of CD73 (p=0.15) after treatment with the compound of Formula (III). FIG. 8C compares CXCL9 (chemokine C-X-C motif ligand 9) gene expression in patients expressing low levels and high levels of CD73 (p=0.02) after treatment with the compound of Formula (III). […]
The patients were orally administered the compound of Formula (III) at a dose of 100 mg, twice a day, for twenty-eight days. Tumor biopsies and blood samples were analyzed from patients with renal cell carcinoma, non-small cell lung cancer, triple negative breast cancer, microsatellite instable colorectal cancer treated with the compound of Formula (III). Paired tumor biopsies were analyzed: gene expression profiles (Nanostring), CD8, PD-L1 and CD73 (IHC). […]

[1] = test system: patients with advanced cancers; experiment: Phase 1/1b clinical trial, tumor response by baseline biomarker level; assay type: in vivo, human; settings: for Objective response rate / Disease control rate: 100 mg orally twice a day, 28 days
Procedure: FIG. 3 is a graph showing tumor response to treatment with the compound of Formula (III) in patients expressing low levels of adenosine A2A receptors and patients expressing high levels of adenosine A2A receptors. RNA was extracted from pre-treatment tumor samples, and Nanostring was performed to arrive at the values described herein. The disease control rate was 0 of 11 patients who expressed low levels of adenosine A2A receptors, and was 9 of 26 patients who expressed high levels of adenosine A2A receptors. The objective response rate was 0 of II patients who expressed low levels of adenosine A2A receptors, and 1 of 26 patients who expressed high levels of adenosine A2A receptors.
FIG. 4 is a graph showing tumor response to treatment with the compound of Formula (III) in patients expressing low levels of CD73 and patients expressing high levels of CD73. RNA was extracted from pre-treatment tumor samples, and Nanostring was performed to arrive at the values described herein. The disease control rate was 1 of 9 patients who expressed low levels of CD73, and was 8 of 28 patients who expressed high levels of CD73. The objective response rate was 0 of 9 patients who expressed low levels of CD73, and was 1 of 28 patients who expressed high levels of CD73.
FIG. 5 is a graph showing tumor response to treatment with the compound of Formula (III) in patients expressing low levels of adenosine A2A receptors and/or CD73 and patients expressing high levels of both adenosine A2A receptors and CD73. RNA was extracted from pre-treatment tumor samples, and Nanostring was performed to arrive at the values described herein. The disease control rate was 8 of 21 patients who expressed low levels of adenosine A2A receptors and/or CD73, and was 1 of 16 patients who expressed high levels of both adenosine A2A receptors and CD73. The objective response rate was 1 of 21 patients who expressed low levels of adenosine A2A receptors and/or CD73, and was 0 of 16 patients who expressed high levels of both adenosine A2A receptors and CD73.
FIG. 6 is a graph showing tumor response to treatment with the compound of Formula (III) in patients expressing low levels of PD-L1 mRNA and patients expressing high levels of PD-L1 mRNA. RNA was extracted from pre-treatment tumor samples, and Nanostring was performed to arrive at the values described herein. The disease control rate was 3 of 17 patients who expressed low levels of PD-L1 mRNA, and was 6 of 20 patients who expressed high levels of PD-L1 mRNA. The objective response rate was 0 of 17 patients who expressed low levels of PD-L1 mRNA, and was 1 of 20 patients who expressed high levels of PD-L1 mRNA.
FIG. 7 is a graph showing tumor response to treatment with the compound of Formula (III) in patients having low levels of PD-L1 and patients having high levels of PD-L1. PD-L1 staining on immune cells was determined by immunohistochemistry using the SP142 antibody that detects PD-L1. The disease control rate was 7 of 24 patients who expressed low levels of PD-L1, and was 2 of 13 patients who expressed high levels of PD-L1. The objective response rate was 0 of 24 patients who expressed low levels of PD-L1, and was 1 of 13 patients who expressed high levels of PD-L1.
“Objective response rate” refers to the patients that had greater than 30% reduction in the sum of the longest dimensions of their assessed target tumor lesions.
The compound of Formula (III) is being investigated in an ongoing Phase 1/1b clinical trial in patients with advanced cancers (NCT02655822 at www.clinicaltrials.gov). Biomarker investigations were conducted to explore immune modulation in serial tumor biopsies and peripheral blood as well associations between adenosine pathway genes and clinical activity. […]

T cell function = experiment: Suppression of T cell function by adenosine; assay type: cell-based
[2] = patients expressing high levels of both adenosine A2A receptors and CD73
[3] = patients expressing low levels of adenosine A2A receptors and/or CD73

Question: With Cc1ccc(-c2nc(N)nc3c2nnn3Cc2cccc(COC3CCOC3)n2)o1 (centres unmarked) [compound of Formula (III)] as the molecule, how does the “Pharmacodynamics changes in IHC and gene expression” value (tumor biopsies) read?
Answer: observed only in CD73-high tumors

Question: What about the “Activity in preclinical models” value (Preclinical models) of the same molecule?
Answer: active in multiple preclinical models

Question: And the Objective response rate ([1]; patients expressing high levels of CD73)?
Answer: 1 of 28

Question: And the Disease control rate ([1]; patients expressing high levels of CD73 (Nanostring))?
Answer: 8 of 28

Question: And the Objective response rate ([1]; patients expressing high levels of PD-L1 mRNA)?
Answer: 1 of 20

Question: And the Disease control rate ([1]; patients expressing high levels of PD-L1 mRNA (Nanostring))?
Answer: 6 of 20

Question: What about the Objective response rate ([1]; patients expressing high levels of adenosine A2A receptors) of the same molecule?
Answer: 1 of 26

Question: What about the Disease control rate ([1]; patients expressing high levels of adenosine A2A receptors (Nanostring, pre-treatment tumor)) of the same molecule?
Answer: 9 of 26

Question: And the Disease control rate [1, 2]?
Answer: 1 of 16

Question: What about the Objective response rate [1, 2] of the same molecule?
Answer: 0 of 16

Question: What about the Objective response rate ([1]; patients expressing low levels of CD73) of the same molecule?
Answer: 0 of 9

Question: And the Disease control rate ([1]; patients expressing low levels of CD73 (Nanostring))?
Answer: 1 of 9

Question: And the Objective response rate ([1]; patients expressing low levels of PD-L1 mRNA)?
Answer: 0 of 17

Question: And the Disease control rate ([1]; patients expressing low levels of PD-L1 mRNA (Nanostring))?
Answer: 3 of 17

Question: What about the Disease control rate ([1]; patients expressing low levels of adenosine A2A receptors (Nanostring, pre-treatment tumor)) of the same molecule?
Answer: 0 of 11

Question: And the Disease control rate [1, 3]?
Answer: 8 of 21

Question: And the Objective response rate [1, 3]?
Answer: 1 of 21

Question: And the Disease control rate ([1]; patients with high levels of PD-L1 (IHC on immune cells, SP142 antibody, ≥1%))?
Answer: 2 of 13

Question: And the Objective response rate ([1]; patients with high levels of PD-L1 (IHC, SP142))?
Answer: 1 of 13

Question: What about the Disease control rate ([1]; patients with low levels of PD-L1 (IHC on immune cells, SP142 antibody, <1%)) of the same molecule?
Answer: 7 of 24

Question: What about the Objective response rate ([1]; patients with low levels of PD-L1 (IHC, SP142)) of the same molecule?
Answer: 0 of 24

Question: What about the Tumor regression ([1]; patients with elevated expression of adenosine A2A receptor genes, CD73 and PD-L1 in baseline tumor samples compared to patients having low expression) of the same molecule?
Answer: significant tumor regression

Question: What about the “Effect on suppression of T cell function by adenosine” value (T cell function) of the same molecule?
Answer: inhibits suppression of T cell function by adenosine
